Laboratory results taken from patent US20030225152A1, “3-(Arylamino)methylene-1, 3-dihydro-2h-indol-2-ones as kinase inhibitors” (priority 2001, published 2003).

What was measured:
[1] = system: VEGF induced increases in intracellular calcium levels in HUVEC (human umbilical vein endothelial cells); assay: VEGF Stimulated Ca++ Signal in vitro (FLIPR); type: cell-based; details: VEGF 5 ng/mL; for IC50: 0.01 to 10.0 μM
In short: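 HUVEC loaded with Fluo-4 (45 min, 37° C.), washed, then pre-incubated 30 min with compound (10 μM single dose or 0.01–10.0 μM; 0.1% DMSO) before 5 ng/mL VEGF. Fluorescence at 516 nm read by FLIPR; IC50 from % inhibition of max-min VEGF response.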

[2] = molecular target: T1, cytoplasmic domain of the human VEGF receptor (VEGFR-2) (Homo sapiens, UniProt P35968); assay: KDR Assay; type: biochemical; details: His-VEGFR-2; 3.6 μM ATP
T1 construct: The cytoplasmic domain of the human VEGF receptor (VEGFR-2) was expressed as a Histidine-tagged fusion protein; Histidine tag
T1 sequence (P35968 786-1356): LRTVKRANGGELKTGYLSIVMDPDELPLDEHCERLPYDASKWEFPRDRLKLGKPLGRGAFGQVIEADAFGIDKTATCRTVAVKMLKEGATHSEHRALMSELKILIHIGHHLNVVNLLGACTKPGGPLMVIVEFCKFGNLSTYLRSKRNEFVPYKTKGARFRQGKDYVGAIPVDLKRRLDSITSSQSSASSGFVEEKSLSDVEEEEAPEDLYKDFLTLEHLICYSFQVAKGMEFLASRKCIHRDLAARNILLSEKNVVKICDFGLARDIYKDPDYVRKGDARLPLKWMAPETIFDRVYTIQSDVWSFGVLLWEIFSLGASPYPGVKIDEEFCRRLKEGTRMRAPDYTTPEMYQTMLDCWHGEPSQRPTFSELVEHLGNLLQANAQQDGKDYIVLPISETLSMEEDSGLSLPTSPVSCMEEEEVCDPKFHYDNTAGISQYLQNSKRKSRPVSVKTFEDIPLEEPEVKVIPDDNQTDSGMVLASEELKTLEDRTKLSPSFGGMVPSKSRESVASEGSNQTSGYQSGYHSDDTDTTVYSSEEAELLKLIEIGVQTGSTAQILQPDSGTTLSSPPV
In short: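 His-tagged human VEGFR-2 cytoplasmic domain from baculovirus-infected insect cells, acting on poly-Glu-Tyr (4:1)-coated plates with 3.6 μM ATP in Hepes pH 7.4 with MgCl2/MnCl2 and 5% final DMSO, 10 min at 25 °C. Phosphotyrosine detected by peroxidase-conjugated antibody ELISA at 492 nm; IC50 from blank-subtracted OD versus concentration.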

| Structure (SMILES) | IC50 [2] | inhibition at 10 µM ([1]; Homo sapiens, 10 μM) | IC50 [1] | IC50 ([1]; Homo sapiens) | VEGF Stimulated Ca^++ signal assay % inhibition @ 10 μM ([1]; 10 μM) |
| --- | --- | --- | --- | --- | --- |
| O=C1Nc2ccc(F)cc2C1=CNc1ccc2cn[nH]c2c1 [Example 163, 5-Fluoro-3-[(1 h-indazol-6-ylamino)-methylene]-1,3-dihydro-indol-2-one] | 320 nM | 95.3% | 850 nM | ≤ 1000 nM | – |
| O=C1Nc2cccc(F)c2C1=CNc1ccc(CN2CCOCC2)cc1 [Example 293, 4-Fluoro-3-[(4-morpholin-4-ylmethyl-phenylamino)-methylene]-1,3-dihydro-indol-2-one] | 470 nM | – | 880 nM | ≤ 1000 nM | – |
| O=C1Nc2cccc(F)c2C1=CNc1ccc(NCCCN2CCOCC2)cc1 [Example 301, 4-Fluoro-3-{[4-(3-morpholin-4-yl-propylamino)-phenylamino]-methylene}-1,3-dihydro-indol-2-one] | 270 nM | – | 770 nM | ≤ 1000 nM | – |
| Cc1cccc2c1C(=CNc1ccc(CN3CCCCC3)cc1)C(=O)N2 [Example 256, 4-Methyl-3-[(4-piperidin-1-ylmethyl-phenylamino)-methylene]-1,3-dihydro-indol-2-one] | 190 nM | – | 670 nM | ≤ 1000 nM | – |
| CN1CCN(c2ccc(NC=C3C(=O)Nc4ccc(F)cc43)cc2)CC1 [Example 168, 5-Fluoro-3-{[4-(4-methyl-piperazin-1-yl)-phenylamino]-methylene}-1,3-dihydro-indol-2-one] | 140 nM | 94.3% | – | – | – |
| O=C1Nc2ccccc2C1=CNc1ccc(N2CCOCC2)c(C(=O)O)c1 [Example 195, 2-Morpholin-4-yl-5-[(2-oxo-1,2-dihydro-indol-3-ylidenemethyl)-amino]-benzoic acid] | 960 nM | 91.1% | – | 4670 nM | – |
| Cc1cccc2c1C(=CNc1ccc(O)cc1)C(=O)N2 [Example 96, 3-[(4-Hydroxy-phenylamino)-methylene]-4-methyl-1,3-dihydro-indol-2-one] | 200 nM | 97% | – | 1680 nM | – |
| O=C1Nc2ccccc2C1=CNc1ccc(S(=O)(=O)NCCO)cc1 [Example 192, N-(2-Hydroxy-ethyl)-4-[(2-oxo-1,2-dihydro-indol-3-ylidenemethyl)-amino]-benzenesulfonamide] | 590 nM | 98.7% | – | 1530 nM | – |
| O=C1Nc2ccccc2C1=CNc1ccc(N2CCCCC2)cc1 [Example 158, 3-[(4-Piperidin-1-yl-phenylamino)-methylene]-1,3-dihydro-indol-2-one] | 390 nM | 97.5% | – | 1140 nM | – |
| COc1ccc(NC=C2C(=O)Nc3cccc(C)c32)c(F)c1 [Example 135, 3-[(2-Fluoro-4-methoxy-phenylamino)-methylene]-4-methyl-1,3-dihydro-indol-2-one] | 7770 nM | 28% | – | – | – |
| O=C1Nc2ccc(Cl)cc2C1=CNc1ccc(NCCN2CCOCC2)cc1 [Example 245, 5-Chloro-3-{[4-(2-morpholin-4-yl-ethylamino)-phenylamino]-methylene}-1,3-dihydro-indol-2-one] | 140 nM | 95.5% | – | – | – |
| COc1ccc(NC=C2C(=O)Nc3cccc(C)c32)cc1 [Example 59, 3-[(4-Methoxy-phenylamino)-methylene]-4-methyl-1,3-dihydro-indol-2-one] | 180 nM | 86% | – | 1650 nM | – |
| NC(=O)c1ccc(NC=C2C(=O)Nc3ccc(F)cc32)cc1 [Example 170, 4-[(5-Fluoro-2-oxo-1,2-dihydro-indol-3-ylidenemethyl)-amino]-benzamide] | 410 nM | 96.7% | 590 nM | ≤ 1000 nM | – |
| Cc1cccc2c1C(=CNc1ccc(C(C)C)cc1)C(=O)N2 [Example 123, 3-[(4-Isopropyl-phenylamino)-methylene]-4-methyl-1,3-dihydro-indol-2-one] | 590 nM | 49.9% | – | 4430 nM | – |
| O=C1Nc2cc(F)ccc2C1=CNc1ccc(N2CCOCC2)cc1 [Example 228, 6-Fluoro-3-[(4-morpholin-4-yl-phenylamino)-methylene]-1,3-dihydro-indol-2-one] | 80 nM | 97.2% | – | – | – |
| COc1ccc(NC=C2C(=O)Nc3cccc(C)c32)cc1O [Example 117, 3-[(3-Hydroxy-4-methoxy-phenylamino)-methylene]-4-methyl-1,3-dihydro-indol-2-one] | 310 nM | 97.7% | – | – | – |
| Cc1cccc2c1C(=CNc1ccc(C(=S)N3CCOCC3)cc1)C(=O)N2 [Example 196, 4-Methyl-3-{[4-(1-morpholin-4-yl-methanethiol)-phenylamino]-methylene}-1,3-dihydro-indol-2-one] | 50 nM | 73.1% | 770 nM | ≤ 1000 nM | – |
| CCN(CC)c1ccc(NC=C2C(=O)Nc3cccc(C)c32)cc1 [Example 189, 3-[(4-Diethylamino-phenylamino)-methylene]-4-methyl-1,3-dihydro-indol-2-one] | 70 nM | 98.2% | – | – | – |
| O=C1Nc2cccc(F)c2C1=CNc1ccc(CCN2CCCCC2)cc1 [Example 287, 4-Fluoro-3-{[4-(2-piperidin-1-yl-ethyl)-phenylamino]-methylene}-1,3-dihydro-indol-2-one] | 110 nM | – | 620 nM | ≤ 1000 nM | – |
| Cc1cccc2c1C(=CNc1ccc(CCCC(=O)O)cc1)C(=O)N2 [Example 140, 4-{4-[(4-Methyl-2-oxo-1,2-dihydro-indol-3-ylidenemethyl)-amino]-phenyl}-butyric acid] | 400 nM | 96.9% | – | – | – |
| COC(=O)c1ccc(NC=C2C(=O)Nc3cccc(C)c32)cc1OC [Example 93, 2-Methoxy-4-[(4-methyl-2-oxo-1,2-dihydro-indol-3-ylidenemethyl)-amino]-benzoic acid methyl ester] | 630 nM | 51.5% | – | 6620 nM | – |
| Cc1ccc(NC=C2C(=O)Nc3cccc(C)c32)cc1N [Example 213, 3-[(3-Amino-4-methyl-phenylamino)-methylene]-4-methyl-1,3-dihydro-indol-2-one] | 150 nM | 95% | 650 nM | ≤ 1000 nM | – |
| CSc1ccc(NC=C2C(=O)Nc3ccc(F)cc32)cc1 [Example 171, 5-Fluoro-3-[(4-methylsulfanyl-phenylamino)-methylene]-1,3-dihydro-indol-2-one] | 430 nM | 38.1% | – | – | – |

Further lines, with some results ahead:

| IC50 [2] | Structure (SMILES) | inhibition at 10 µM ([1]; Homo sapiens, 10 μM) | IC50 [1] | IC50 ([1]; Homo sapiens) | VEGF Stimulated Ca^++ signal assay % inhibition @ 10 μM ([1]; 10 μM) |
| --- | --- | --- | --- | --- | --- |
| 510 nM | COc1ccc(NC=C2C(=O)Nc3ccccc32)cc1O [Example 49, 3-[(3-Hydroxy-4-methoxy-phenylamino)-methylene]-1,3-dihydro-indol-2-one] | 97.1% | – | – | – |
| 460 nM | O=C1Nc2ccccc2C1=CNc1ccc(CCO)cc1 [Example 87, 3-{[4-(2-Hydroxyethyl)phenylamino]-methylene}-1,3-dihydro-indol-2-one] | 79.5% | – | 2250 nM | – |
| 510 nM | O=C(O)CCc1cccc(NC=C2C(=O)Nc3ccccc32)c1 [Example 141, 3-{3-[(2-Oxo-1,2-dihydro-indol-3-ylidenemethyl)-amino]-phenyl}-propionic acid] | 92.6% | – | 2960 nM | – |
| 460 nM | CCc1ccc(NC=C2C(=O)Nc3cccc(C)c32)cc1 [Example 151, 3-[(4-Ethyl-phenylamino)-methylene]-4-methyl-1,3-dihydro-indol-2-one] | 50.8% | – | – | – |
| 880 nM | NC(=O)c1ccc(NC=C2C(=O)Nc3ccccc32)cc1 [Example 33, 3-[(4-Benzamidylamino)-methylene]-1,3-dihydro-indol-2-one] | 95.9% | – | 1350 nM | – |
| 150 nM | CCc1cccc(NC=C2C(=O)Nc3cccc(C)c32)c1 [Example 147, 3-[(3-Ethyl-phenylamino)-methylene]-4-methyl-1,3-dihydro-indol-2-one] | 71.6% | – | 5490 nM | – |
| 520 nM | CCc1cccc(NC=C2C(=O)Nc3ccccc32)c1 [Example 6] | 90.1% | – | 1840 nM | – |
| 500 nM | NS(=O)(=O)c1ccc(NC=C2C(=O)Nc3ccccc32)cc1 [Example 38, 2-Oxo-1,2-dihydro-indol-3-ylidenemethyl-sulfanilamide] | – | 1450 nM | – | 92.08% |
| 790 nM | CC(C)(C)c1ccc(NC=C2C(=O)Nc3ccccc32)cc1 [Example 17, 3-[(4-tert-Butyl-phenylamino)-methylene]-1,3-dihydro-indol-2-one] | 76.5% | – | 3000 nM | – |
| 550 nM | O=C1Nc2ccccc2C1=CNc1ccc(OC(F)F)cc1 [Example 50, 3-{[4-(1,1-Difluoro-methoxy)-phenylamino]-methylene}-1,3-dihydro-indol-2-one] | 93.5% | – | 1650 nM | – |
| 530 nM | O=C(O)CCCc1ccc(NC=C2C(=O)Nc3ccccc32)cc1 [Example 139, 4-{4-[(2-Oxo-1,2-dihydro-indol-3-ylidenemethyl)-amino]-phenyl}-butyric acid] | 99.3% | – | 1620 nM | – |
